Data published in ChEMBL document CHEMBL4049409, “Structure-based discovery of LpxC inhibitors” (Bioorg Med Chem Lett, 2017).
Values after ≈ are worked out from the molar mass of the structure shown.

Assays:
[1] = tested on: Acinetobacter baumannii; assay: Antibacterial activity against Acinetobacter baumannii focus ID 961025; type: functional
[2] = target: T1, UDP-3-O-acyl-N-acetylglucosamine deacetylase (Pseudomonas aeruginosa (strain ATCC 15692 / PAO1 / 1C / PRS 101 / LMG12228), UniProt P47205); assay: Inhibition of LpxC in Pseudomonas aeruginosa isolate 44 ATCC 27853
T1 sequence (P47205 whole entry): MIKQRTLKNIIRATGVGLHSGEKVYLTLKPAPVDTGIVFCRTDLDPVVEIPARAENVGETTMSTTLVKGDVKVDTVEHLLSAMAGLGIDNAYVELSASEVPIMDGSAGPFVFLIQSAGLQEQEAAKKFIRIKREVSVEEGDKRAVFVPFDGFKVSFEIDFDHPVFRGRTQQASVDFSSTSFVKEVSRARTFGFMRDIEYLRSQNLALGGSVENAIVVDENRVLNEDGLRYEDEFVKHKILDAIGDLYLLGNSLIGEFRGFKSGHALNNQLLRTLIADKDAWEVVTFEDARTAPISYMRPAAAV

[3] = tested on: Escherichia coli; assay: Antibacterial activity against Escherichia coli isolate 35 ATCC 25922; type: functional
[4] = Inhibition of LpxC in Acinetobacter baumannii focus ID 961025
[5] = tested on: Klebsiella pneumoniae; assay: Antibacterial activity against Klebsiella pneumoniae isolate 21 ATCC 4352; type: functional
[6] = Inhibition of LpxC in Klebsiella pneumoniae isolate 21 ATCC 4352
[7] = tested on: Pseudomonas aeruginosa; assay: Antibacterial activity against Pseudomonas aeruginosa isolate 44 ATCC 27853; type: functional
[8] = target: T2, UDP-3-O-acyl-N-acetylglucosamine deacetylase (Escherichia coli K-12, UniProt P0A725); assay: Inhibition of LpxC in Escherichia coli isolate 35 ATCC 25922; parameters: species or system Escherichia coli ATCC 25922
T2 sequence (P0A725 whole entry): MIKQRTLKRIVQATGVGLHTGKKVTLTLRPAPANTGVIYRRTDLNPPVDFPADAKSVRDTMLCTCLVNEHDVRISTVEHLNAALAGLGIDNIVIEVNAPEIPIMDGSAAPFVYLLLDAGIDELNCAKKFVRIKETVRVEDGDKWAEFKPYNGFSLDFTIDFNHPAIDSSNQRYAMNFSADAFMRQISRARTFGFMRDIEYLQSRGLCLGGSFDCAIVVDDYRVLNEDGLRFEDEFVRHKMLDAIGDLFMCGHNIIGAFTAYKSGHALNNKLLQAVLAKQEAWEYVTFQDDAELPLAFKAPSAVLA

[9] = tested on: Pseudomonas aeruginosa; assay: Antibacterial activity against Pseudomonas aeruginosa isolate 839 harboring mexAB-oprM deletion mutant; type: functional

Structure (SMILES) | MIC [1] | IC50 [2] | MIC [3] | IC50 [4] | MIC [5] | IC50 [6] | MIC [7] | IC50 [8] | MIC [9]
C[C@@H](O)[C@H](NC1CCCc2cc(C#Cc3ccc(CN4CCOCC4)cc3)ccc21)C(=O)NO (some centres undefined) | 128 µg/mL (≈ 276 µM) | 2 nM | 0.25 µg/mL (≈ 0.539 µM) | 80 nM | < 0.125 µg/mL | 0.2 nM | 32 µg/mL (≈ 69 µM) | 0.3 nM | 
C[C@@H](O)[C@H](N[C@H]1CCc2cc(C#Cc3ccc(CN4CCN(CCO)CC4)cc3)ccc21)C(=O)NO |  | 14 nM | 2 µg/mL (≈ 4.06 µM) |  | < 0.125 µg/mL | 21 nM | 4 µg/mL (≈ 8.12 µM) | 20 nM | 1 µg/mL (≈ 2.03 µM)
C[C@@H](O)[C@H](N[C@@H]1CCc2cc(C#Cc3ccc(CN4CCOCC4)cc3)ccc21)C(=O)NO | 64 µg/mL (≈ 142 µM) | 8 nM | 0.5 µg/mL (≈ 1.11 µM) | 1990 nM | 0.125 µg/mL (≈ 0.278 µM) | 7 nM | 128 µg/mL (≈ 285 µM) | 3 nM | 
C[C@@H](O)[C@H](NC1CCc2cc(C#Cc3ccc(CN4CCOCC4)cc3)ccc21)C(=O)NO (some centres undefined) | > 64 µg/mL | 4 nM | 0.25 µg/mL (≈ 0.556 µM) | 382 nM | 0.125 µg/mL (≈ 0.278 µM) | 2 nM | 8 µg/mL (≈ 17.8 µM) | 2 nM | 
Cc1nccn1Cc1ccc(C#Cc2ccc3c(c2)CC[C@@H]3N[C@H](C(=O)NO)[C@@H](C)O)cc1 |  | 4 nM | 0.25 µg/mL (≈ 0.562 µM) |  | 0.06 µg/mL (≈ 0.135 µM) | 2 nM | 8 µg/mL (≈ 18 µM) | 1 nM | 0.25 µg/mL (≈ 0.562 µM)
C[C@@H](O)[C@H](NC1CCCCc2cc(C#Cc3ccccc3)ccc21)C(=O)NO (some centres undefined) | > 128 µg/mL | 333 nM | 16 µg/mL (≈ 42.3 µM) | 1160 nM | 2 µg/mL (≈ 5.28 µM) | 72 nM | > 128 µg/mL | 109 nM | 
C[C@@H](O)[C@H](NC1CCOc2cc(C#Cc3ccccc3)ccc21)C(=O)NO (some centres undefined) | 32 µg/mL (≈ 87.3 µM) | 13 nM | 2 µg/mL (≈ 5.46 µM) | 36 nM | < 0.125 µg/mL | 8 nM | 128 µg/mL (≈ 349 µM) | 11 nM | 
C[C@@H](O)[C@H](NC1CCN(C)c2cc(C#Cc3ccc(CN4CCOCC4)cc3)ccc21)C(=O)NO (some centres undefined) | > 32 µg/mL | 18 nM | 2 µg/mL (≈ 4.18 µM) | 331 nM | 0.125 µg/mL (≈ 0.261 µM) | 2 nM | > 32 µg/mL | 2 nM | 
CCCCC(N[C@H](C(=O)NO)[C@@H](C)O)c1ccc(C#Cc2ccccc2)cc1 (some centres undefined) | > 128 µg/mL | 616 nM | 64 µg/mL (≈ 168 µM) | 1460 nM | 2 µg/mL (≈ 5.26 µM) | 724 nM | > 128 µg/mL | 534 nM | 
C[C@@H](O)[C@H](N[C@H]1CCc2cc(C#Cc3ccc(CN4CCN(C)CC4)cc3)ccc21)C(=O)NO |  | 30 nM | 0.25 µg/mL (≈ 0.54 µM) |  | 0.125 µg/mL (≈ 0.27 µM) | 32 nM | 8 µg/mL (≈ 17.3 µM) | 53 nM | 1 µg/mL (≈ 2.16 µM)
C[C@@H](O)[C@H](N[C@H]1CCc2cc(C#Cc3ccc(CN4CCCCC4)cc3)ccc21)C(=O)NO |  | 10 nM | 0.5 µg/mL (≈ 1.12 µM) |  | 0.5 µg/mL (≈ 1.12 µM) | 5 nM | 16 µg/mL (≈ 35.7 µM) | 10 nM | 2 µg/mL (≈ 4.47 µM)
CCC(N[C@H](C(=O)NO)[C@@H](C)O)c1ccc(C#Cc2ccccc2)cc1 (some centres undefined) | > 64 µg/mL | 214 nM | 4 µg/mL (≈ 11.3 µM) | 566 nM | 2 µg/mL (≈ 5.67 µM) | 120 nM | > 64 µg/mL | 215 nM | 
CNCCOCc1ccc(C#Cc2ccc3c(c2)CC[C@@H]3N[C@H](C(=O)NO)[C@@H](C)O)cc1 |  | 6 nM | 4 µg/mL (≈ 9.14 µM) |  | 0.25 µg/mL (≈ 0.571 µM) | 11 nM | 16 µg/mL (≈ 36.6 µM) | 15 nM | 2 µg/mL (≈ 4.57 µM)
C[C@@H](O)[C@H](NC1CCN(C)c2cc(C#Cc3ccccc3)ccc21)C(=O)NO (some centres undefined) | > 128 µg/mL | 15 nM | 8 µg/mL (≈ 21.1 µM) | 124 nM | 1 µg/mL (≈ 2.64 µM) | 4 nM | > 128 µg/mL | 2 nM | 
CCCC(N[C@H](C(=O)NO)[C@@H](C)O)c1ccc(C#Cc2ccccc2)cc1 (some centres undefined) | 32 µg/mL (≈ 87.3 µM) | 50 nM | 2 µg/mL (≈ 5.46 µM) | 273 nM | 0.25 µg/mL (≈ 0.682 µM) | 53 nM | 64 µg/mL (≈ 175 µM) | 60 nM | 
COC1CCN(Cc2ccc(C#Cc3ccc4c(c3)CC[C@@H]4N[C@H](C(=O)NO)[C@@H](C)O)cc2)CC1 |  | 3 nM | 0.5 µg/mL (≈ 1.05 µM) |  | 0.06 µg/mL (≈ 0.126 µM) | 6 nM | 8 µg/mL (≈ 16.8 µM) | 5 nM | 1 µg/mL (≈ 2.09 µM)
CC(N[C@H](C(=O)NO)[C@@H](C)O)c1ccc(C#Cc2ccccc2)cc1 (some centres undefined) | 64 µg/mL (≈ 189 µM) | 72 nM | 4 µg/mL (≈ 11.8 µM) | 160 nM | 1 µg/mL (≈ 2.96 µM) | 64 nM | > 64 µg/mL | 96 nM | 
C[C@@H](O)[C@H](NC1CCOc2cc(C#Cc3ccc(CN4CCOCC4)cc3)ccc21)C(=O)NO (some centres undefined) | 64 µg/mL (≈ 137 µM) | 6 nM | 2 µg/mL (≈ 4.3 µM) | 83 nM | < 0.125 µg/mL | 2 nM | 16 µg/mL (≈ 34.4 µM) | 1 nM | 
C[C@@H](O)[C@H](NC1CCc2cc(C#Cc3ccccc3)ccc21)C(=O)NO (some centres undefined) | 16 µg/mL (≈ 45.7 µM) | 20 nM | 0.5 µg/mL (≈ 1.43 µM) | 165 nM | 0.125 µg/mL (≈ 0.357 µM) | 5 nM | 32 µg/mL (≈ 91.3 µM) | 7 nM | 
C[C@@H](O)[C@H](N[C@H]1CCc2cc(C#Cc3ccc(CN4CC(O)C4)cc3)ccc21)C(=O)NO |  | 63 nM | 4 µg/mL (≈ 9.18 µM) |  | 0.125 µg/mL (≈ 0.287 µM) |  | 4 µg/mL (≈ 9.18 µM) | 127 nM | 0.5 µg/mL (≈ 1.15 µM)
C[C@@H](O)[C@H](NC1CCCc2cc(C#Cc3ccccc3)ccc21)C(=O)NO (some centres undefined) | 16 µg/mL (≈ 43.9 µM) | 5 nM | 1 µg/mL (≈ 2.74 µM) | 40 nM | 0.25 µg/mL (≈ 0.686 µM) | 0.2 nM | 32 µg/mL (≈ 87.8 µM) | 1 nM | 
C[C@@H](O)[C@H](NC1COCc2cc(C#Cc3ccc(CN4CCOCC4)cc3)ccc21)C(=O)NO (some centres undefined) | 64 µg/mL (≈ 137 µM) | 6 nM | 0.25 µg/mL (≈ 0.537 µM) | 25 nM | < 0.125 µg/mL | 1 nM | 64 µg/mL (≈ 137 µM) | 1 nM | 
C[C@@H](O)[C@H](NCc1ccc(C#Cc2ccccc2)cc1)C(=O)NO | 32 µg/mL (≈ 98.6 µM) | 20 nM | 4 µg/mL (≈ 12.3 µM) | 17 nM | 0.5 µg/mL (≈ 1.54 µM) | 48 nM | > 128 µg/mL | 67 nM | 
C[C@@H](O)[C@H](N[C@H]1CCc2cc(C#Cc3ccc(CN4CC[C@@H](O)C4)cc3)ccc21)C(=O)NO |  | 26 nM | 2 µg/mL (≈ 4.45 µM) |  | 0.5 µg/mL (≈ 1.11 µM) | 38 nM | 8 µg/mL (≈ 17.8 µM) | 51 nM | 1 µg/mL (≈ 2.22 µM)
C[C@@H](O)[C@H](NC1CN(C)Cc2cc(C#Cc3ccccc3)ccc21)C(=O)NO (some centres undefined) | > 128 µg/mL | 108 nM | 2 µg/mL (≈ 5.27 µM) | 310 nM | 0.5 µg/mL (≈ 1.32 µM) | 18 nM | > 128 µg/mL | 28 nM | 
C[C@@H](O)[C@H](NC1COCc2cc(C#Cc3ccccc3)ccc21)C(=O)NO (some centres undefined) | 32 µg/mL (≈ 87.3 µM) | 14 nM | 0.25 µg/mL (≈ 0.682 µM) | 49 nM | < 0.125 µg/mL | 1 nM | 64 µg/mL (≈ 175 µM) | 2 nM | 
